Experimental data published in patent publication US20090156504A1, “METHODS OF TREATING BLOOD CELL DEPLETION” (ImmuneRegen Biosciences, Inc., priority 2007, published 2009).

Experiments:
[1] = system: Colony Forming Unit-Megakaryocyte (CFU-Mk) cultures; assay: Colony forming unit assay, CFU-Mk (Example 6); type: cell-based, human; details: for effect of receptor antagonist on substance P-enhanced platelet colony formation: in the presence of substance P
Excerpt: (§1) As stem cells differentiate in response to growth factors, they form a colony of cells with distinct morphologies that can be visualized using a microscope. This study examined the formation of three different progenitor cell populations, erythrocytes, platelets and granulocytes/macrophages.
(§2) Bone marrow aspirates were obtained from three healthy donors between 18 and 35 years of age following appropriate guidelines and protocols. Bone marrow mononuclear cells were isolated using a Ficoll-Hypaque density gradient, separating red blood cells from the others. Cells from each donor were processed independently and used for setting up individual experiments to assess the effects, if any, of donor variability.
(§3) Cells (1×10^5) were plated in duplicate onto 35 mm tissue culture plates for each condition tested and set up as described in Rameshwar et al. 1993, Blood. 81:2, 391-398. Erythroid and granulocyte/macrophage cultures were plated using methylcellulose and megakaryocyte cultures (platelet precursors) used a collagen-based support (StemCell Technologies, Vancouver, Canada, catalogue #04973). […] CP 99,994 (Pfizer) was used as a neurokinin-1 receptor antagonist and SR 48968 (Sanofi) was used as a neurokinin-2 receptor antagonist.
Cultures were set up with limited cytokines and growth factors which would promote differentiation of one progenitor per plate.
Each compound was dissolved in endotoxin-free water to a final concentration of 0.1 mM. After reconstitution, the solutions were aliquoted into siliconized microcentrifuge tubes and exposed to nitrogen gas, eliminating oxygen in the head space of the enclosure. All aliquots were stored at −20° C. until use and used within one month of reconstitution. See, Rameshwar, et al. 1997, J. Immunol.
Cultures were incubated at 37° C. with 5% CO2 for approximately 14 days, after which colonies were manually enumerated using a microscope. […]

[2] = system: human bone marrow-derived hematopoietic cell populations; assay: CFC differentiation and ATP proliferation assays, overall statements on the seven cell populations (Examples 4 and 5); type: cell-based
Method: The compound was dissolved in 1 ml of Iscove's Modified Dulbecco's Medium (IMDM) and a serial dose response prepared in single log doses so that the final dose in culture ranged from 1 nM to 1×10^−16 M. All working dilutions were performed in IMDM.
Starting with human bone marrow aspirate, the mononuclear cell (MNC) fraction was separated from the whole bone marrow using Ficoll-Paque density gradient centrifugation. […] The cell concentration was adjusted so that the final cell concentration in culture was 10,000 cells/well.
Human bone marrow MNC was dissolved in IMDM and cultured at a concentration of 10,000 cell/well in a CAMEO™-96 Master Mix (HemoGenix, Inc., Colorado Springs, Colo.). Master Mix is a HemoGenix proprietary cell culture media comprised of a serum mix (4 parts), a methyl cellulose mix (4 parts) and a growth factor mix (1 part) with the bone marrow target cells (1 part). See, Rich and Hall 2005, Toxicol. Sci. 87(2): 427-441.
Different combinations and concentrations of growth factors are used to induce differentiation of cells into specific cell types. […]
Prior to processing all 96-well plates, the total colony counts/well were manually enumerated by microscopy. The mean, standard deviation and percent coefficient of variation was calculated for all groups, transposed and plotted. The intracellular ATP (iATP) concentration was measured after manual enumeration. The output of the luminometer is non-standardized Relative Luminescence Units (RLU). […] This allowed the RLU values to be automatically calculated into standardized ATP (μM) units. For both the RLU and ATP values derived from each well, the luminometer software calculated the mean, standard deviation and percent coefficient of variation. […]

[3] = system: Colony Forming Unit—Erythroid (CFU-E) cultures; assay: Colony forming unit assay, CFU-E (Example 6); type: cell-based; details: human bone marrow cells, about 14 days, FIG. 2
Excerpt: as §1, §2
as §3, with “antagonist. […]” for “antagonist.”

[4] = system: Blast Forming Unit—Erythroid (BFU-E) cultures; assay: Colony forming unit assay, BFU-E (Example 6); type: cell-based; details: human bone marrow cells, about 14 days, FIG. 1; control = zero level
Excerpt: as §1, §2
as §3, with “antagonist. […]” for “antagonist.”

## COc1ccccc1CN[C@H]1CCCN[C@H]1c1ccccc1 [CP-99,994]
[1]
  effect of receptor antagonist on substance P-enhanced platelet colony formation: blocks the stimulatory activity of substance P

## CC(C)C[C@H](NC(=O)CN(C)C(=O)[C@H](Cc1ccccc1)NC(=O)[C@H](Cc1ccccc1)NC(=O)[C@H](CCC(N)=O)NC(=O)[C@H](CCC(N)=O)NC(=O)[C@@H]1CCCN1C(=O)[C@H](CCCCN)NC(=O)[C@@H]1CCCN1C(=O)[C@@H](N)CCCNC(=N)N)C(=O)N[C@@H](CCS(C)(=O)=O)C(N)=O [Homspera®]
[2]; Example 4, levels tested (10^−16 M to 1 nM)
  toxicity to T-CFC and B-CFC: do not demonstrate toxicity at the levels tested
[2]; Example 4, most of populations, 14 days, 10^−16 M to 1 nM
  cytotoxicity: apparent absence of distinct cytotoxicity
[2]; Example 5, three donors, seven cell populations, highest doses (1 nM)
  toxicity in CFC assay: no apparent toxicity at the highest doses

## CC(=O)NC1(c2ccccc2)CCN(CC[C@H](CN(C)C(=O)c2ccccc2)c2ccc(Cl)c(Cl)c2)CC1 [SR48968]
[1]
  effect of receptor antagonist on substance P-enhanced platelet colony formation: showed no effect on substance P activity

## RPKPQQFFGLM-NH2 [substance P]
[1]; approximately 2-fold stimulation
  effective concentration for platelet precursors: 10^−8 M
[3]
  CFU-E colony formation enhancement from control values: about 70%
[4]
  BFU-E colony increase from control values: ~60%
